This is an account of results in patent publication US9095594B2, “Pharmaceutical compositions comprising beta-lactam antibiotic, sulbactam and beta-lactamase inhibitor” (Wockhardt Ltd., priority 2011, dated 2015).

Values after ≈ are worked out from the molar mass of the structure shown. Structures can show the parent of a compound that is named as a salt. Where two headings read alike, the source gives them in different places.

The subject of assay [1] is A. baumanii 13301 (ESBL strain). Kind of assay: Agar dilution MIC (CLSI). In kind it is cell-based. The settings on record: for MIC: Acinetobacter baumannii. Background: In agar dilution, organisms are placed on agar that contains the substance at set levels.
Method: (§1) In a typical study, overnight grown bacterial cultures were diluted appropriately and inoculated on the agar media containing doubling dilutions of the antibiotic. Observation for growth or no growth was performed after 16-20 hours of incubation at 35±2° C. in ambient air.
Assay [2] has as its system A. baumanii S-10 (ESBL strain). Kind of assay: Agar dilution MIC (CLSI). In kind it is cell-based. The settings on record: for MIC: Acinetobacter baumannii.
Method: as §1
Assay [3] deals with A. baumanii 13304 (ESBL strain). As to the kind of experiment: Agar dilution MIC (CLSI). In kind it is cell-based. The settings on record: for MIC: Acinetobacter baumannii.
Method: as §1
For assay [4], the system named is A. baumanii S-8 (ESBL strain). Kind of assay: Agar dilution MIC (CLSI). In kind it is cell-based. To be noted: for MIC: Acinetobacter baumannii.
Method: as §1
For assay [5], the system named is A. baumanii S-15 (ESBL strain). As to the kind of experiment: Agar dilution MIC (CLSI). The settings on record: for MIC: Acinetobacter baumannii. In kind it is cell-based.
Method: as §1
For assay [6], the system named is A. baumanii 13305 (ESBL strain). Kind of assay: Agar dilution MIC (CLSI). The settings on record: for MIC: Acinetobacter baumannii. In kind it is cell-based.
Method: as §1
Assay [7] relates to A. baumanii S-3 (ESBL strain). As to the kind of experiment: Agar dilution MIC (CLSI). In kind it is cell-based. To be noted: for MIC: Acinetobacter baumannii.
Method: as §1
In assay [8] the test system is A. baumanii S-4 (ESBL strain). Kind of assay: Agar dilution MIC (CLSI). The settings on record: for MIC: Acinetobacter baumannii. In kind it is cell-based.
Method: as §1
The subject of another assay is ESBL strains. Kind of assay: Agar dilution MIC (CLSI), text summary over the strains. In kind it is cell-based, A. baumanii.
The mark [9] stands for this setting: alone, A. baumanii 13301, read-out: MIC.
Setting [10] is: alone, A. baumanii S-10, read-out: MIC.
Setting [11] is: alone, A. baumanii 13304, read-out: MIC.
The mark [12] stands for this setting: alone, A. baumanii S-8, read-out: MIC.
Where [13] appears, read: alone, A. baumanii 13305, read-out: MIC.
[14] abbreviates: alone, A. baumanii S-3, read-out: MIC.

Method for ESBL strains: as §1

As to `CO/N=C(\C(=O)N[C@@H]1C(=O)N2C(C(=O)[O-])=C(C[N+]3(C)CCCC3)CS[C@H]12)c1csc(N)n1` [Cefepime, cefepime], the “MIC of beta-lactam with NXL-104 (4 mcg/ml) + Sulbactam (4 mcg/ml)” value in assay [1] (A. baumanii 13301), in assay [3] (A. baumanii 13304) and in assay [6] (A. baumanii 13305) was less than 0.06 µg/mL throughout. Also, the “MIC of beta-lactam with NXL-104 (4 mcg/ml) + Sulbactam (8 mcg/ml)” value (“MIC … (4 mcg/ml) + Sulbactam (8 mcg/ml)” below) in [1] (A. baumanii 13301) was less than 0.06 µg/mL; in assay [2] (A. baumanii S-10) it was 8 µg/mL; in assay [3] (A. baumanii 13304) it was less than 0.06 µg/mL; in assay [4] (A. baumanii S-8), 8 µg/mL; in assay [5] (A. baumanii S-15, NXL-104 4 mcg/ml + Sulbactam 8 mcg/ml) it was 8 µg/mL; in assay [6] (A. baumanii 13305), less than 0.06 µg/mL. Besides, the “MIC … (4 mcg/ml) + Sulbactam (8 mcg/ml)” value in assay [7] (A. baumanii S-3) was determined as 4 µg/mL; in assay [8] (A. baumanii S-4, NXL-104 4 mcg/ml + Sulbactam 8 mcg/ml), 4 µg/mL. Besides, the “MIC of beta-lactam with NXL-104 (6 mcg/ml) + Sulbactam (6 mcg/ml)” value (shortened to “MIC of beta-lactam … (6 mcg/ml)”) in assay [1] (A. baumanii 13301) is less than 0.06 µg/mL; in [2] (A. baumanii S-10) it was less than 0.03 µg/mL; in [3] (A. baumanii 13304), less than 0.06 µg/mL; in assay [4] (A. baumanii S-8), 0.5 µg/mL; in assay [5] (A. baumanii S-15, NXL-104 6 mcg/ml + Sulbactam 6 mcg/ml), 0.12 µg/mL; in [6] (A. baumanii 13305) it was less than 0.06 µg/mL. Also, the “MIC of beta-lactam … (6 mcg/ml)” value worked out at 1 µg/mL in [7] (A. baumanii S-3) and 1 µg/mL in assay [8] (A. baumanii S-4, NXL-104 6 mcg/ml + Sulbactam 6 mcg/ml). Also, the “MIC of beta-lactam with NXL-104 (8 mcg/ml) + Sulbactam (4 mcg/ml)” value (“MIC … (8 mcg/ml) + Sulbactam (4 mcg/ml)” for short) in assay [1] (A. baumanii 13301) was less than 0.06 µg/mL; in [2] (A. baumanii S-10), less than 0.03 µg/mL; in assay [3] (A. baumanii 13304) it was less than 0.06 µg/mL; in [4] (A. baumanii S-8) it was 0.5 µg/mL; in assay [5] (A. baumanii S-15, NXL-104 8 mcg/ml + Sulbactam 4 mcg/ml), 0.5 µg/mL; in assay [6] (A. baumanii 13305) it was less than 0.06 µg/mL. In addition, the “MIC … (8 mcg/ml) + Sulbactam (4 mcg/ml)” value came to 0.5 µg/mL in assay [7] (A. baumanii S-3) and 0.5 µg/mL in assay [8] (A. baumanii S-4, NXL-104 8 mcg/ml + Sulbactam 4 mcg/ml). Further, the “MIC of beta-lactam in presence of Sulbactam (4 to 8 mcg/ml)” value in assay [6] (A. baumanii 13305) was determined as 4 µg/mL.
For `CO/N=C(\C(=O)N[C@@H]1C(=O)N2C(C(=O)[O-])=C(C[n+]3cccc4c3CCC4)CS[C@H]12)c1csc(N)n1` [Cefpirome, cefpirome], the “MIC of beta-lactam with NXL-104 (4 mcg/ml) + Sulbactam (4 mcg/ml)” value in assay [1] (A. baumanii 13301) is less than 0.06 µg/mL; in [2] (A. baumanii S-10, NXL-104 4 mcg/ml + Sulbactam 4 mcg/ml), 16 µg/mL; in [3] (A. baumanii 13304), less than 0.06 µg/mL; in assay [4] (A. baumanii S-8, NXL-104 4 mcg/ml + Sulbactam 4 mcg/ml) it was 16 µg/mL; in [6] (A. baumanii 13305), less than 0.06 µg/mL; in assay [7] (A. baumanii S-3, NXL-104 4 mcg/ml + Sulbactam 4 mcg/ml) it was 16 µg/mL. Moreover, the “MIC … (4 mcg/ml) + Sulbactam (8 mcg/ml)” value was less than 0.06 µg/mL in assay [1] (A. baumanii 13301); 8 µg/mL in assay [2] (A. baumanii S-10); less than 0.06 µg/mL in assay [3] (A. baumanii 13304); 8 µg/mL in [4] (A. baumanii S-8); less than 0.06 µg/mL in assay [6] (A. baumanii 13305); 4 µg/mL in [7] (A. baumanii S-3). Moreover, the “MIC of beta-lactam … (6 mcg/ml)” value is less than 0.06 µg/mL in [1] (A. baumanii 13301); less than 0.03 µg/mL in assay [2] (A. baumanii S-10); less than 0.06 µg/mL in assay [3] (A. baumanii 13304); 0.5 µg/mL in assay [4] (A. baumanii S-8); less than 0.06 µg/mL in assay [6] (A. baumanii 13305); 1 µg/mL in [7] (A. baumanii S-3). For the same compound, the “MIC … (8 mcg/ml) + Sulbactam (4 mcg/ml)” value is less than 0.06 µg/mL in assay [1] (A. baumanii 13301); less than 0.03 µg/mL in assay [2] (A. baumanii S-10); less than 0.06 µg/mL in assay [3] (A. baumanii 13304); 0.5 µg/mL in assay [4] (A. baumanii S-8); less than 0.06 µg/mL in assay [6] (A. baumanii 13305); 0.5 µg/mL in assay [7] (A. baumanii S-3). Besides, the “MIC of beta-lactam in presence of Sulbactam (4 to 8 mcg/ml)” value in assay [1] (A. baumanii 13301, Sulbactam 4 to 8 mcg/ml) was greater than 32 µg/mL; in [2] (A. baumanii S-10, Sulbactam 4 to 8 mcg/ml) it was greater than 32 µg/mL; in [3] (A. baumanii 13304, Sulbactam 4 to 8 mcg/ml), 32 µg/mL; in [4] (A. baumanii S-8, Sulbactam 4 to 8 mcg/ml), 32 µg/mL; in assay [6] (A. baumanii 13305), 8 µg/mL; in assay [7] (A. baumanii S-3, Sulbactam 4 to 8 mcg/ml) it was greater than 32 µg/mL. Moreover, the MIC in assay [1] (A. baumanii 13301, NXL-104 4 to 8 mcg/ml, read-out: MIC of beta-lactam in presence of NXL-104 (4 to 8 mcg/ml)) is greater than 32 µg/mL; in assay [1] (setting [9]) it was greater than 32 µg/mL; in assay [2] (A. baumanii S-10, NXL-104 4 to 8 mcg/ml, read-out: MIC of beta-lactam in presence of NXL-104 (4 to 8 mcg/ml)), 16 µg/mL; in assay [2] (setting [10]), greater than 32 µg/mL; in [3] (A. baumanii 13304, NXL-104 4 to 8 mcg/ml, read-out: MIC of beta-lactam in presence of NXL-104 (4 to 8 mcg/ml)), 16 µg/mL; in assay [3] (setting [11]), 32 µg/mL (≈ 62.2 µM). The MIC is 16 µg/mL in assay [4] (A. baumanii S-8, NXL-104 4 to 8 mcg/ml, read-out: MIC of beta-lactam in presence of NXL-104 (4 to 8 mcg/ml)); 32 µg/mL (≈ 62.2 µM) in assay [4] (setting [12]); 16 µg/mL in [6] (A. baumanii 13305, NXL-104 4 to 8 mcg/ml, read-out: MIC of beta-lactam in presence of NXL-104 (4 to 8 mcg/ml)); 16 µg/mL (≈ 31.1 µM) in assay [6] (setting [13]); 32 µg/mL in assay [7] (A. baumanii S-3, NXL-104 4 to 8 mcg/ml, read-out: MIC of beta-lactam in presence of NXL-104 (4 to 8 mcg/ml)); greater than 32 µg/mL in assay [7] (setting [14]). Also, the “MIC in presence of sulbactam and NXL-104, lowest value ("as low as")” value with ESBL strains is reported as “less than 0.03 mcg/ml”.
Turning to `NC(=O)[C@@H]1CC[C@@H]2CN1C(=O)N2OS(=O)(=O)O` [NXL-104, sodium salt of trans-7-oxo-6-(sulphooxy)-1,6-diazabicyclo-[3.2.1]-octane-2-carboxamide], the “MIC of NXL-104 in presence of Sulbactam (4 mcg/ml)” value in assay [1] (A. baumanii 13301, Sulbactam 4 mcg/ml) was determined as 2 µg/mL; in [2] (A. baumanii S-10, Sulbactam 4 mcg/ml), 16 µg/mL; in assay [3] (A. baumanii 13304, Sulbactam 4 mcg/ml), 2 µg/mL; in [4] (A. baumanii S-8, Sulbactam 4 mcg/ml) it was 16 µg/mL; in [5] (A. baumanii S-15, Sulbactam 4 mcg/ml), 16 µg/mL; in assay [6] (A. baumanii 13305, Sulbactam 4 mcg/ml), 2 µg/mL. Also, the “MIC of NXL-104 in presence of Sulbactam (4 mcg/ml)” value in assay [7] (A. baumanii S-3, Sulbactam 4 mcg/ml) amounted to 16 µg/mL; in assay [8] (A. baumanii S-4, Sulbactam 4 mcg/ml), 16 µg/mL. The MIC in assay [1] (setting [9]) is greater than 64 µg/mL; in assay [2] (setting [10]), greater than 64 µg/mL; in assay [3] (setting [11]) it was greater than 64 µg/mL; in assay [4] (setting [12]) it was greater than 64 µg/mL; in assay [5] (alone, A. baumanii S-15, read-out: MIC), greater than 64 µg/mL; in [6] (setting [13]), greater than 64 µg/mL. The MIC in assay [7] (setting [14]) was greater than 64 µg/mL; in [8] (alone, A. baumanii S-4, read-out: MIC), greater than 64 µg/mL.
`CC1(C)[C@H](C(=O)O)N2C(=O)C[C@H]2S1(=O)=O` [Sulbactam, sulbactam]: the MIC in assay [1] is greater than 32 µg/mL; in assay [2], greater than 32 µg/mL; in assay [3], greater than 32 µg/mL; in [4], greater than 32 µg/mL; in assay [5] it was greater than 32 µg/mL; in assay [6], 16 µg/mL (≈ 68.6 µM). Further, the MIC in assay [7] and in assay [8] was greater than 32 µg/mL throughout.
